{
  "source": "patent US20030175329A1",
  "about": "“Semisolid topical hormonal compositions and methods for treatment” (Cellegy Pharmaceuticals, Inc., priority 2001, published 2003)",
  "origin": "cited, not measured here",
  "key": {"[1]": {"tested_on": "healthy males", "conditions": "200 mg IM weekly"}, "[2]": {"conditions": "6 months"}, "[3]": {"tested_on": "hypogonadal males", "conditions": "oral doses for at least 60 days; 23 hypogonadal males"}},
  "data": [
    {"smiles": "C[C@]12CC[C@H]3[C@@H](CCC4=CC(=O)CC[C@@]43C)[C@@H]1CC[C@@H]2O", "note": "[Testosterone, testosterone]", "values": [
      {"measurement": "dose excreted in urine as glucuronide and sulfate conjugates of testosterone and its metabolites", "setting": "following IM injection", "value": "about 90%"},
      {"measurement": "excreted mostly unconjugated in the feces", "setting": "in vivo", "value": "About 6%"}
    ]},
    {"smiles": "CCCCCCC(=O)O[C@H]1CC[C@H]2[C@@H]3CCC4=CC(=O)CC[C@]4(C)[C@H]3CC[C@]12C", "note": "[testosterone enanthate]", "values": [
      {"measurement": "decrease of high-density lipoprotein cholesterol", "setting": "[1]", "value": "14-18%"},
      {"measurement": "serum BT levels maintained within the normal range throughout the dosing interval", "setting": "[2]", "value": 39, "unit": "%"},
      {"measurement": "serum DHT levels maintained within the normal range throughout the dosing interval", "setting": "[2]", "value": 70, "unit": "%"},
      {"measurement": "serum E2 levels maintained within the normal range throughout the dosing interval", "setting": "[2]", "value": 35, "unit": "%"},
      {"measurement": "serum T levels maintained within the normal range throughout the dosing interval", "setting": "[2]", "value": 72, "unit": "%"}
    ]},
    {"smiles": "CCCCCCCCCCC(=O)O[C@H]1CC[C@H]2[C@@H]3CCC4=CC(=O)CC[C@]4(C)[C@H]3CC[C@]12C", "note": "[testosterone undecanoate]", "values": [
      {"measurement": "men with measurable improvement in sexual attitudes and performance", "setting": "[3]", "value": 61, "unit": "%"}
    ]}
  ]
}
